Earlier results in patent publication US20230337663A1, “AGRICULTURAL COMPOSITION” (REVOLUTION BIOTECH LLC, priority 2020, published 2023).

Details: Ecolabel Lubricant Substance Classification List

Question: With Farnesene, mixture of isomers as the substance, how does the toxicity label read?
Answer: The toxicity label was “non-toxic”.
